How the values were obtained:
NCI-H292 cells = test: MUC5AC mRNA and protein in NCI-H292 cells incubated with cigarette smoke solution (Example 7); assay type: cell-based, human; details: within 6 hours, increased at 12 hours
Protocol: NCI-H292 cells, a human pulmonary mucoepidermoid carcinoma cell line, were grown in RPMI 1640 medium containing 10% fetal bovine serum, penicillin (100 U/ml), streptomycin (100 μg/ml) and Hepes (25 mM) at 37° C. in a humidified 5% CO2 water-jacketed incubator. Either 6-well culture plates or 8-chamber slides were used to culture the cells. When confluent, cells were incubated for 1 hour with cigarette smoke solution. The cells were then washed and incubated with fresh medium alone. Experiments were terminated at preselected times (for mRNA, 6 hours and 12 hours; for protein, 24 hours). As controls, cells were incubated with medium alone for same time periods. […] The effects of a selective inhibitor of platelet-derived growth factor receptor tyrosine kinase (tyrphostin AG1295, 100 μM, Calbiochem), and a negative control for tyrphostins (tyrphostin A1, 100 μM, Calbiochem) were also examined. The role of reactive oxygen species was examined using a scavenger of oxygen free radicals DMSO (1%, Sigma), or superoxide dismutase (SOD, 300 U/ml, Sigma).
In situ hybridization was performed using a human EGFR probe, which contains a 350-bp cDNA fragment of the human EGFR gene (pTRI-EGFR-human probe template, Ambion, Austin, Tex.) and a human MUC5AC probe, which contains a 298-bp cDNA fragment of the human MUC5AC gene, The 350-bp cDNA human EGFR was subcloned into pBluescript II SK-vector at Kpn I and EcoR I sites. This pBluescript was used to generate human EGFR antisense and sense probes. Hybridization was performed as described previously. Lou et al. (1998) Am. J. Respir. Crit. Care Med. 157:1927-1934. In brief, the cells grown on the 8-chamber slides were fixed in 4% paraformaldehyde, rehydrated in 0.5×SSC, and then acetylated in triethanolamine and acetic anhydride. Hybridization was carried out with 2500-4000 cpm/μl of antisense or sense probe in 50% deionized formamide, 0.3 M NaCl, 20 mM Tris, 5 mM EDTA, 1× Denhardt's solution, 20 mM dithiothreitol, 10% dextran sulfate, 0.5 mg/ml yeast tRNA, and 0.5 mg/ml sonicated salmon sperm DNA at 58° overnight. Posthybridization treatment consisted of washes with 2×SSC, 1 mM EDTA, 10 mM β-mercaptoethanol at room temperature, incubation with RNase solution (20 μg/ml) for 30 min at room temperature, and further washes in 0.1×SSC, 1 mM EDTA, 10 mM β-mercaptoethanol at 55° C. for 2 hours and then in 0.5×SSC at room temperature for 20 minutes. Specimens were dehydrated, air-dried, and covered with Kodak NBT nuclear track emulsion (Eastman Kodak, Rochester, N.Y.) for autoradiography. After exposure for 7 to 21 days at 4° C., the slides were developed, fixed, and counterstained with hematoxylin.
MUC5AC protein was measured as described previously. Takeyama et al. (1999) Proc. Natl. Acad. Sci. USA 96:3081-3086. In brief, cell lysates were prepared with PBS at multiple dilutions, and 50 μl of each sample was incubated with bicarbonate-carbonate buffer (50 μl) at 40° C. in a 96-well plate (Maxisorp Nunc, Fisher Scientific, Santa Clara, Calif.), until dry. Plates were washed three times with PBS and blocked with 2% bovine serum albumin, fraction V (Sigma) for 1 hour at room temperature. Plates were again washed three times with PBS and then incubated with 50 μl of MUC5AC mAb (1:1 00) that was diluted with PBS containing 0.05% Tween 20. After 1 hour, the wells were washed three times with PBS, and 100 μl horseradish peroxidase-goat anti-mouse IgG conjugate (1:10,000) was dispensed into each well. After 1 hour, plates were washed three times with PBS. Color reaction was developed with 3,3′,5,5′-tetramethylbenzidine (TMB) peroxidase solution (Kirkegaard & Perry Laboratories, Gaithersburg, Md.) and stopped with 2N H2S04. Absorbance was read at 450 nm.

EGFR = EGFR (Homo sapiens, UniProt P00533); test: Immunoblotting for activated EGFR in NCI-H292 cells; assay type: cell-based; parameters: NCI-H292 cells expressed EGSR mRNA constitutively; endogenous in cells; host or cells: NCI-H292 (human pulmonary mucoepidermoid carcinoma); details: stimulated 15 minutes
Protocol: Cells were serum-starved for 24 hours and then stimulated with cigarette smoke solution or with TGFα for 15 minutes. After stimulation, cells were lysed with lysis buffer (20 mM sodium phosphate, pH 7.8, 150 mM NaCl, 5 mM EDTA, 50 mM HEPES, 1% Triton-X100, 50 mM NaF, 1 mM sodium orthovanadate, 5 mM PMSF, and 10 μg/ml each of leupeptin and aprotinin) and incubated for 30 minutes at 4° C. To remove insoluble materials, cell lysates were centrifuged at 14,000 rpm for 5 minutes at 4° C. Aliquots of supernatants containing equal amounts of protein were suspended in SDS sample buffer and boiled for 5 minutes. Proteins were separated by SDS-PAGE in 4-15% acrylamide gel. The resulting gel was equilibrated in the transfer buffer: 25 mM Tris-HCl, 192 mM glycine, 20% (vol/vol) methanol, pH 8.3. The proteins were then transferred electrophoretically to nitrocellulose membranes, which were incubated with 5% fat-free skimmed milk in PBS containing 0.05% Tween 20 for 1 hour and then incubated with anti-phospho-specific EGFR mAb (2 μg/ml, Calbiochem) overnight. Bound Ab was visualized according to a standard protocol for the avidin-biotin-alkaline phosphatase complex method (ABC kit, Vector Laboratories, Burlingame, Calif.).

For “TGFα: transforming growth factor alpha, EGF-R ligand (recombinant human; rat synthetic in vivo)”, the “MUC5AC mRNA expression” value (NCI-H292 cells) was “increased” and the EGFR-specific tyrosine phosphorylation (EGFR) was “increased”.

Source: US7531500B2, “Preventing airway mucus production by administration of EGF-R antagonists” (The Regents of the University of California, priority 1998, dated 2009)
